Read-outs that look alike come from different tables or passages of the source.
What was measured:
[1] = target: T1, recombinant N-terminal GST-tagged human Rho kinase 1 (ROCK1, amino acids 1-535) (Homo sapiens, UniProt Q13464); assay: In vitro Rho kinase assay (luciferase-based ATP consumption), ROCK1; format: biochemical
T1 construct: ROCK1, amino acids 1-535; purchased Invitrogen Inc. PV-3691
In short: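 GST-ROCK1 (aa 1-535) at 0.82 μg/ml with 100 μg/ml S6 peptide and 3 µM ATP in Tris pH 7.5 buffer with MgCl2, CaCl2, EGTA, BSA; compound added after reaction start, 2 h at 30 °C. Remaining ATP read by luciferase luminescence; efficacy as percent of H-1152P positive control.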

[2] = target: T2, recombinant N-terminal GST-tagged human Rho kinase 2 (ROCK2, amino acids 1-552) (Homo sapiens, UniProt O75116); assay: In vitro Rho kinase assay (luciferase-based ATP consumption), ROCK2; format: biochemical
T2 construct: ROCK2, amino acids 1-552; purchased Invitrogen Inc. PV3759
In short: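 GST-ROCK2 (aa 1-552, 0.82 μg/ml) with 100 μg/ml S6 peptide and 3 µM ATP in Tris pH 7.5 buffer with MgCl2/CaCl2/EGTA/BSA, compound added just after reaction start, 2 h at 30 °C. Remaining ATP read by luciferase luminescence. Efficacy expressed as percentage of H-1152P positive control.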

[3] = recombinant GST-tagged human ROCK1, luciferase-based ATP consumption, read-out: ROCK1 IC50
[4] = recombinant GST-tagged human ROCK2, luciferase-based ATP consumption, read-out: ROCK2 IC50

T1 sequence (Q13464 1-535): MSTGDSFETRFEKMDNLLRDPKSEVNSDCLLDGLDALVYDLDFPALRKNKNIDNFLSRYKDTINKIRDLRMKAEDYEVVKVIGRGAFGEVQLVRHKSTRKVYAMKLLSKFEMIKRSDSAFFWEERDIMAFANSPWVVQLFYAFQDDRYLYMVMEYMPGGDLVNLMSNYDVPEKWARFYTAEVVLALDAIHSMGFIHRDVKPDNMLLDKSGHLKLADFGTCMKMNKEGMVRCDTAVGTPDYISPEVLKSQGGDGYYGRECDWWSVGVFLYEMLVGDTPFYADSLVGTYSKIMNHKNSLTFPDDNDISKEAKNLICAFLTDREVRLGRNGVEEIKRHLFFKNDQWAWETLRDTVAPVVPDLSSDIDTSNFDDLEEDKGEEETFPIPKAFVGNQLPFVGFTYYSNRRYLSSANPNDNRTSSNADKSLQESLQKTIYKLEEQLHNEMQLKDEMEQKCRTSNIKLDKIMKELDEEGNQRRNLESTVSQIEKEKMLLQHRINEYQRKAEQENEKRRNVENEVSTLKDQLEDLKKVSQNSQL
T2 sequence (O75116 1-552): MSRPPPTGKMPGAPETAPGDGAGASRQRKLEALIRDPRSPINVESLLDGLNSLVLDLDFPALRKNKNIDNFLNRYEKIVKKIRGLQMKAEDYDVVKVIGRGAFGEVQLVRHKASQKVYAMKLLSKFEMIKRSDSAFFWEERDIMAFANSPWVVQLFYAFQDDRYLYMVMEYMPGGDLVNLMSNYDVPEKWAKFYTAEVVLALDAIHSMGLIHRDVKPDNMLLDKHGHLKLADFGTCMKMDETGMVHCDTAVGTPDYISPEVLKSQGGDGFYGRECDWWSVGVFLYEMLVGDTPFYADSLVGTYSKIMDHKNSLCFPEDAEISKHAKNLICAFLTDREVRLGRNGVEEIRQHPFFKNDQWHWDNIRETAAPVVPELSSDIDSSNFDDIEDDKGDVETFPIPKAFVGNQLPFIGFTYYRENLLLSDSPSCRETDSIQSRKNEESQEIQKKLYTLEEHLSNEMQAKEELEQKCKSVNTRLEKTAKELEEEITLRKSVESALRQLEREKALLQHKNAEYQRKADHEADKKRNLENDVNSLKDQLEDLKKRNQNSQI

| IC50 [1, 3] | IC50 [2, 4] | Compound | IC50 ([1]; ROCK1 IC50, recombinant GST-tagged human ROCK1, luciferase-based ATP consumption) | IC50 ([2]; ROCK2 IC50, recombinant GST-tagged human ROCK2, luciferase-based ATP consumption) |
| --- | --- | --- | --- | --- |
| > 5 µM | < 5 µM | COc1ccc(C(=O)NCc2ccc3sc(-c4ccnc(N)n4)c(C)c3c2)c(OC)c1 [Example 219, COc1ccc(C(═O)NCc2ccc3sc(c(C)c3c2)-c4ccnc(N)n4)c(OC)c1] |  |  |
| < 5 µM | > 5 µM | Cc1c(-c2ccnc(N)n2)sc2ccc(CNC(=O)C3CCCN3C(=O)OC(C)(C)C)cc12 (centres unmarked) [Example 289, Cc1c(sc2ccc(CNC(═O)[C]3CCCN3C(═O)OC(C)(C)C)cc12)-c4ccnc(N)n4] |  |  |
| < 5 µM | < 5 µM | Cc1c(-c2ccnc(N)n2)sc2ccc(CNC(=O)C(C)(C)C)cc12 [Example 100, Cc1c(sc2ccc(CNC(═O)C(C)(C)C)cc12)-c3ccnc(N)n3] |  |  |
| < 5 µM | < 5 µM | Cc1c(-c2ccnc(N)n2)sc2ccc(Nc3cccc(NC(=O)c4ccc(OCCN5CCOCC5)cc4)c3)cc12 [Example 59, N-(3-(2-(2-Aminopyrimidin-4-yl)-3-methylbenzo[b]thiophen-5-ylamino)phenyl)-4-(2-morpholinoethoxy)benzamide] |  |  |
| > 5 µM | > 5 µM | Cc1c(-c2ccnc(N)c2)sc2ccc(Cl)cc12 [Example 7, 4-(5-Chloro-3-methylbenzo[b]thiophen-2-yl)pyridin-2-amine] |  |  |
| < 5 µM | < 5 µM | Cc1c(-c2ccnc(N)n2)sc2ccc(CNC(=O)c3c4ccccc4cc4ccccc34)cc12 [Example 297, Cc1c(sc2ccc(CNC(═O)c3c4ccccc4cc5ccccc35)cc12)-c6ccnc(N)n6] |  |  |
| > 5 µM | > 5 µM | COc1ccccc1Cc1ccc2sc(-c3ccnc(N)n3)c(C)c2c1 [Example 37, 4-(5-(2-Methoxybenzyl)-3-methylbenzo[b]thiophen-2-yl)pyrimidin-2-amine] |  |  |
| > 5 µM | < 5 µM | Cc1c(-c2ccnc(N)n2)sc2ccc(CNC(=O)c3ccc(Oc4cccc(O)c4)cc3)cc12 [Example 306, Cc1c(sc2ccc(CNC(═O)c3ccc(Oc4cccc(O)c4)cc3)cc12)-c5ccnc(N)n5] |  |  |
| > 5 µM | < 5 µM | Cc1c(-c2ccnc(N)n2)sc2ccc(CNC(=O)C=Cc3ccccc3F)cc12 [Example 173, Cc1c(sc2ccc(CNC(═O)C═Cc3ccccc3F)cc12)-c4ccnc(N)n4] |  |  |
| > 5 µM | < 5 µM | COc1ccc(C(=O)NCc2ccc3sc(-c4ccnc(N)n4)c(C)c3c2)c(OC)c1OC [Example 280, COc1ccc(C(═O)NCc2ccc3sc(c(C)c3c2)-c4ccnc(N)n4)c(OC)c1OC] |  |  |
| > 5 µM | < 5 µM | Cc1ccc(O)c(C(=O)NCc2ccc3sc(-c4ccnc(N)n4)c(C)c3c2)c1 [Example 141, Cc1ccc(O)c(c1)C(═O)NCc2ccc3sc(c(C)c3c2)-c4ccnc(N)n4] |  |  |
| < 5 µM | < 5 µM | Cc1c(-c2ccnc(N)n2)sc2ccccc12 [Example 14, 4-(3-Methylbenzo[b]thiophen-2-yl)pyrimidin-2-amine] |  |  |
| > 5 µM | < 5 µM | Cc1c(C(=O)NCc2ccc3sc(-c4ccnc(N)n4)c(C)c3c2)cccc1[N+](=O)[O-] [Example 218, Cc1c(cccc1[N+]([O−])═O)C(═O)NCc2ccc3sc(c(C)c3c2)-c4ccnc(N)n4] |  |  |
| > 5 µM | > 5 µM | CCOc1ccccc1C(=O)NCc1ccc2sc(-c3ccnc(N)n3)c(C)c2c1 [Example 174, CCOc1ccccc1C(═O)NCc2ccc3sc(c(C)c3c2)-c4ccnc(N)n4] |  |  |
| < 5 µM | < 5 µM | Cc1c(-c2ccnc(N)n2)sc2ccc(CNC(=O)c3cnc[nH]3)cc12 [Example 102, Cc1c(sc2ccc(CNC(═O)c3cnc[nH]3)cc12)-c4ccnc(N)n4] |  |  |
| < 5 µM | < 5 µM | Cc1c(-c2ccnc(N)n2)sc2ccc(Cl)cc12 [Example 1, 4-(5-Chloro-3-methylbenzo[b]thiophen-2-yl)pyrimidin-2-amine] |  |  |
| > 5 µM | > 5 µM | Cc1c(-c2ccnc(N)n2)sc2ccc(Cc3cccc(C(F)(F)F)c3)cc12 [Example 39, 4-(3-Methyl-5-(3-(trifluoromethyl)benzyl)benzo[b]thiophen-2-yl)pyrimidin-2-amine] |  |  |
|  |  | Cc1c(-c2ccnc(N)n2)sc2ccc(CNC(=O)c3c(F)cccc3Cl)cc12 [Example 195, Cc1c(sc2ccc(CNC(═O)c3c(F)cccc3Cl)cc12)-c4ccnc(N)n4] | < 5 µM | < 5 µM |
| < 5 µM | < 5 µM | Cc1c(-c2ccnc(N)n2)sc2ccc(CNC(=O)c3ccc(C#N)cc3)cc12 [Example 126, Cc1c(sc2ccc(CNC(═O)c3ccc(cc3)C#N)cc12)-c4ccnc(N)n4] |  |  |
| < 5 µM | < 5 µM | Cc1cccc(CCC(=O)NCc2ccc3sc(-c4ccnc(N)n4)c(C)c3c2)c1 [Example 168, Cc1cccc(CCC(═O)NCc2ccc3sc(c(C)c3c2)-c4ccnc(N)n4)c1] |  |  |
| < 5 µM | < 5 µM | Cc1c(-c2ccnc(N)n2)sc2ccc(CNC(=O)c3ccc4cc(O)ccc4c3)cc12 [Example 236, Cc1c(sc2ccc(CNC(═O)c3ccc4cc(O)ccc4c3)cc12)-c5ccnc(N)n5] |  |  |
| > 5 µM | < 5 µM | Cc1c(-c2ccnc(N)n2)sc2ccc(CNC(=O)CCc3cccc(Br)c3)cc12 [Example 304, Cc1c(sc2ccc(CNC(═O)CCc3cccc(Br)c3)cc12)-c4ccnc(N)n4] |  |  |
| < 5 µM | < 5 µM | Cc1c(-c2ccnc(N)n2)sc2ccc(CNC(=O)c3ccc(F)c([N+](=O)[O-])c3)cc12 [Example 231, Cc1c(sc2ccc(CNC(═O)c3ccc(F)c(c3)[N+]([O−])═O)cc12)-c4ccnc(N)n4] |  |  |
| > 5 µM | < 5 µM | Cc1c(-c2ccnc(N)n2)sc2ccc(CNC(=O)c3ccc(F)c(F)c3)cc12 [Example 157, Cc1c(sc2ccc(CNC(═O)c3ccc(F)c(F)c3)cc12)-c4ccnc(N)n4] |  |  |
| < 5 µM | < 5 µM | Cc1c(-c2ccnc(N)n2)sc2ccc(Nc3ccncc3)cc12 [Example 66, 4-(3-Methyl-5-(pyridin-4-ylamino)benzo[b]thiophen-2-yl)pyrimidin-2-amine] |  |  |
| < 5 µM | < 5 µM | Cc1c(-c2ccnc(N)n2)sc2ccc(CNC(=O)CC#N)cc12 [Example 97, Cc1c(sc2ccc(CNC(═O)CC#N)cc12)-c3ccnc(N)n3] |  |  |
| > 5 µM | < 5 µM | Cc1c(-c2ccnc(N)n2)sc2ccc(CNC(=O)c3ccccc3Cc3ccccc3)cc12 [Example 281, Cc1c(sc2ccc(CNC(═O)c3ccccc3Cc4ccccc4)cc12)-c5ccnc(N)n5] |  |  |
| > 5 µM | < 5 µM | Cc1c(-c2ccnc(N)n2)sc2ccc(CNC(=O)c3cccc(Cl)c3[N+](=O)[O-])cc12 [Example 264, Cc1c(sc2ccc(CNC(═O)c3cccc(Cl)c3[N+]([O−])═O)cc12)-c4ccnc(N)n4] |  |  |

| Compound | IC50 [1, 3] | IC50 [2, 4] | IC50 ([1]; ROCK1 IC50, recombinant GST-tagged human ROCK1, luciferase-based ATP consumption) | IC50 ([2]; ROCK2 IC50, recombinant GST-tagged human ROCK2, luciferase-based ATP consumption) |
| --- | --- | --- | --- | --- |
| Cc1c(-c2ccnc(N)n2)sc2ccc(CNC(=O)c3ccc(N(C)C=O)cc3)cc12 [Example 205, CN(C═O)c1ccc(cc1)C(═O)NCc2ccc3sc(c(C)c3c2)-c4ccnc(N)n4] | < 5 µM | < 5 µM |  |  |
| CC1=NN(c2ccc(C(=O)NCc3ccc4sc(-c5ccnc(N)n5)c(C)c4c3)cc2)C(=O)C1 [Example 295, CC1═NN(C(═O)C1)c2ccc(cc2)C(═O)NCc3ccc4sc(c(C)c4c3)-c5ccnc(N)n5] | < 5 µM | > 5 µM |  |  |
| CC(=O)Oc1ccc(C(=O)NCc2ccc3sc(-c4ccnc(N)n4)c(C)c3c2)cc1 [Example 208, CC(═O)Oc1ccc(cc1)C(═O)NCc2ccc3sc(c(C)c3c2)-c4ccnc(N)n4] | < 5 µM | < 5 µM |  |  |

Source: patent publication US20080021026A1, “BENZOTHIOPHENE INHIBITORS OF RHO KINASE” (priority 2006, published 2008)
